In patent US10941157B2, “Pesticidal compositions and uses thereof” (Gilead Apollo, LLC, priority 2015, dated 2021):
Values after ≈ are worked out from the molar mass of the structure shown. Like-named read-outs stand apart in the source and are kept apart here.

Experiments:
Puccinia triticina = assay: Foliar protection test for wheat leaf rust control; assay type: in vivo; settings: foliar application to wheat (Triticum aestivum cv. Winterhawk), evaluated 10 days later
[1] = test system: Blumeria graminis f. sp. hordei; assay: Foliar protection test for barley powdery mildew control; assay type: in vivo; settings: foliar spray on Hordeum vulgare cv. Perry, inoculated 24 hours after treatment, evaluated 7 days later
In short: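 Protective foliar test: compound atomized onto both leaf surfaces of 6-day-old Hordeum vulgare cv. Perry, followed after 24 h by spore-cloud inoculation from colonized untreated plants. Disease rated on leaves 7 days on, plants held at 20 to 22° C and 70% RH.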

[2] = test system: Fusarium virguliforme (Fv); assay: In vitro pathogen growth inhibition assay, Fv; assay type: cell-based
In short: (§1)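 Spores in 17% V8 liquid medium, or 1.5 mm Rs mycelial plugs in ¼ PDB, incubated with compound; final concentration checked by OD600 for precipitation. OD readings at 24 and 48 h, blank-subtracted, plus visual ratings; value is concentration giving ≥90% growth inhibition.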

Phakopsora pachyrhizi = assay: Foliar protection test for Asian soybean rust control; assay type: in vivo; settings: foliar application to soybean (Glycine max AG4832), percent disease area evaluated 14 days later
Sphaerotheca fuliginea = assay: Foliar protection for cucumber powdery mildew control; assay type: in vivo; settings: foliar spray on Cucumis sativus cv. Straight Eight, inoculated 24 hours after treatment, evaluated 7 days later
In short: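 Protective foliar spray on 10-day-old Straight Eight cucumbers, with S. fuliginea spores dusted from infected stock plants 24 h after treatment. Disease developed at 23–27 °C, 60% RH and a 16 h photoperiod. Leaves were rated for mildew growth after 7 days; test rates 10 ppm or below.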

Botrtyis cinerea (Bc) = assay: In vitro pathogen growth inhibition assay, Bc; assay type: cell-based; settings: 48 h
In short: (§2)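 Value reported is the compound concentration reaching ≥90% growth inhibition, from OD readings at 24 and 48 h after blank subtraction, confirmed visually. Inoculum was spores diluted in 17% V8 medium, except Rs, using 1.5 mm mycelial plugs in ¼ PDB; actual compound concentration corrected via OD600.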

Rhizoctonia solani (Rs) = assay: In vitro pathogen growth inhibition assay, Rs (mycelial plugs); assay type: cell-based; settings: Rhizoctonia solani, 48 h, mycelial plugs
In short: as §1

[3] = test system: Collectotrichum graminicola (Cg); assay: In vitro pathogen growth inhibition assay, Cg; assay type: cell-based; settings: 48 h
In short: as §2

Fusarium graminearum = assay type: in vivo; settings: spray on flowering Triticum aestivum cv. Samson, inoculated 24 hours after treatment, evaluated 14 days later
[4] = test system: Mycosphaerella graminicola (synthetic Septoria tritici); assay: Foliar protection test for wheat septoria leaf blotch control; assay type: in vivo; settings: foliar spray on Triticum aestivum cv. WinterHawk, inoculated 1 hour after treatment, evaluated 16 days later
Septoria tritici (St) = assay: In vitro pathogen growth inhibition assay, St; assay type: cell-based; settings: Zymoseptoria tritici, 48 h
In short: as §2

[5] = test system: Fusarium moniliforme (Fm); assay: In vitro pathogen growth inhibition assay, Fm; assay type: cell-based; settings: Fusarium verticillioides
In short: as §2

Diplodia maydis (Dm) = assay: In vitro pathogen growth inhibition assay, Dm; assay type: cell-based; settings: Stenocarpella maydis, 48 h
In short: as §1

[6] = test system: Phytophthora capsici (Pc); assay: In vitro pathogen growth inhibition assay, Pc; assay type: cell-based; settings: 48 h
In short: as §1

[7] = ≥90% growth inhibition, 48 hours, vs 2% DMSO control, read-out: Compound Concentration (ppm) sufficient for ≥90% inhibition of Fv
[8] = ≥90% growth inhibition, 48 hours, vs 2% DMSO control, read-out: Compound Concentration (ppm) sufficient for ≥90% inhibition of Bc
[9] = ≥90% growth inhibition, 48 hours, vs 2% DMSO control, read-out: Compound Concentration (ppm) sufficient for ≥90% inhibition of Rs
[10] = ≥90% growth inhibition, 48 hours, vs 2% DMSO control, read-out: Compound Concentration (ppm) sufficient for ≥90% inhibition of Cg
[11] = ≥90% growth inhibition, 48 hours, vs 2% DMSO control, read-out: Compound Concentration (ppm) sufficient for ≥90% inhibition of St
[12] = ≥90% growth inhibition, 48 hours, vs 2% DMSO control, read-out: Compound Concentration (ppm) sufficient for ≥90% inhibition of Fm
[13] = ≥90% growth inhibition, 48 hours, vs 2% DMSO control, read-out: Compound Concentration (ppm) sufficient for ≥90% inhibition of Dm
[14] = ≥90% growth inhibition, 48 hours, vs 2% DMSO control, read-out: Compound Concentration (ppm) sufficient for ≥90% inhibition of Pc

SMILES	Wheat Leaf Rust Control at a compound concentration of 10 ppm or lower (Puccinia triticina)	Barley Powdery Mildew Control at a compound concentration of 10 ppm or lower [1]	IC90 [2, 7]	Asian Soybean Rust Control at a compound concentration of 25 ppm or lower (Phakopsora pachyrhizi)	Cucumber Powdery Mildew Control at a compound concentration of 10 ppm or lower (Sphaerotheca fuliginea)	IC90 (Botrtyis cinerea (Bc); [8])	IC90 (Rhizoctonia solani (Rs); [9])	IC90 [3, 10]	Wheat Fusarium Head Blight Control at a compound concentration of 25 ppm or lower (Fusarium graminearum)	Septoria Leaf Blotch Control at a compound concentration of 25 ppm or lower [4]	IC90 (Septoria tritici (St); [11])	IC90 [5, 12]	IC90 (Diplodia maydis (Dm); [13])	IC90 [6, 14]	further results
COc1ccc(F)cc1[C@H](Cn1c(=O)n(C(C)(C)C(=O)NC(C)C)c(=O)c2c(C)c(-n3nccn3)sc21)OC[C@@H](C)C#N [Compound I-211, 2-(1-((R)-2-((S)-2-cyanopropoxy)-2-(5-fluoro-2-methoxyphenyl)ethyl)-5-methyl-2,4-dioxo-6-(2H-1,2,3-triazol-2-yl)-1,4-dihydrothieno[2,3-d]pyrimidin-3 (2H)-yl)-N-isopropyl-2-methylpropanamide]	A (from 70% to 84% control of wheat leaf rust)	AA (≥85% control of barley powdery mildew)	0.4 µg/mL (≈ 0.654 µM)	AA (≥85% control of Asian soybean rust)	AA (≥85% control of cucumber powdery mildew)	0.4 µg/mL (≈ 0.654 µM)	0.08 µg/mL (≈ 0.131 µM)	0.08 µg/mL (≈ 0.131 µM)	C (from 25 to 49% control of wheat fusarium head blight)	AA (≥85% control of wheat septoria leaf blotch)	> 50 µg/mL	0.08 µg/mL (≈ 0.131 µM)	0.08 µg/mL (≈ 0.131 µM)	> 50 µg/mL	–
COc1ccc(F)cc1[C@H](Cn1c(=O)n([C@H](C)C(=O)NC2CCC2)c(=O)c2c(C)c(-n3nccn3)sc21)OCCO [Compound I-092, (R)—N-cyclobutyl-2-(1-((R)-2-(5-fluoro-2-methoxyphenyl)-2-(2-hydroxyethoxy)ethyl)-5-methyl-2,4-dioxo-6-(2H-1,2,3-triazol-2-yl)-1,4-dihydrothieno[2,3-d]pyrimidin-3(2H)-yl)propanamide]	AA (≥85% control of wheat leaf rust)	C (from 25 to 49% control of barley powdery mildew)	–	B (from 50 to 69% control of Asian soybean rust)	AA (≥85% control of cucumber powdery mildew)	–	–	–	C (from 25 to 49% control of wheat fusarium head blight)	B (from 50 to 69% control of wheat septoria leaf blotch)	–	–	–	–	IC90 ([2]; ≥90% inhibition, 48 hours vs 2% DMSO control, read-out: Compound Concentration (ppm) sufficient for ≥90% inhibition of growth, Fv): > 0.4 µg/mL; IC90 (Botrtyis cinerea (Bc); ≥90% inhibition, 48 hours vs 2% DMSO control, read-out: Compound Concentration (ppm) sufficient for ≥90% inhibition of growth, Bc): 0.4 µg/mL (≈ 0.682 µM); IC90 (Rhizoctonia solani (Rs); ≥90% inhibition, 48 hours vs 2% DMSO control, read-out: Compound Concentration (ppm) sufficient for ≥90% inhibition of growth, Rs): 0.08 µg/mL (≈ 0.136 µM); IC90 ([3]; ≥90% inhibition, 48 hours vs 2% DMSO control, read-out: Compound Concentration (ppm) sufficient for ≥90% inhibition of growth, Cg): 0.08 µg/mL (≈ 0.136 µM); IC90 (Septoria tritici (St); ≥90% inhibition, 48 hours vs 2% DMSO control, read-out: Compound Concentration (ppm) sufficient for ≥90% inhibition of growth, St): ≥ 2 µg/mL; IC90 ([5]; ≥90% inhibition, 48 hours vs 2% DMSO control, read-out: Compound Concentration (ppm) sufficient for ≥90% inhibition of growth, Fm): 0.08 µg/mL (≈ 0.136 µM); IC90 (Diplodia maydis (Dm); ≥90% inhibition, 48 hours vs 2% DMSO control, read-out: Compound Concentration (ppm) sufficient for ≥90% inhibition of growth, Dm): 0.4 µg/mL (≈ 0.682 µM); IC90 ([6]; ≥90% inhibition, 48 hours vs 2% DMSO control, read-out: Compound Concentration (ppm) sufficient for ≥90% inhibition of growth, Pc): 2 µg/mL (≈ 3.41 µM)
CCNC(=O)C(C)(C)n1c(=O)c2c(C)c(C(=O)OCC)sc2n(C[C@H](OCCC#N)c2cc(F)ccc2OC)c1=O [Compound I-231, (R)-ethyl-1-(2-(2-cyanoethoxy)-2-(5-fluoro-2-methoxyphenyl)ethyl)-3-(1-(ethylamino)-2-methyl-1-oxopropan-2-yl)-5-methyl-2,4-dioxo-1,2,3,4-tetrahydrothieno[2,3-d]pyrimidine-6-carboxylate]	AA (≥85% control of wheat leaf rust)	AA (≥85% control of barley powdery mildew)	2 µg/mL (≈ 3.4 µM)	A (from 70% to 84% control of Asian soybean rust)	AA (≥85% control of cucumber powdery mildew)	2 µg/mL (≈ 3.4 µM)	0.08 µg/mL (≈ 0.136 µM)	0.4 µg/mL (≈ 0.68 µM)	C (from 25 to 49% control of wheat fusarium head blight)	C (from 25 to 49% control of wheat septoria leaf blotch)	≥ 10 µg/mL	0.08 µg/mL (≈ 0.136 µM)	0.4 µg/mL (≈ 0.68 µM)	> 50 µg/mL	–
